Test results from patent US11123340B2, “Small-molecule UT-A-selective urea transport inhibitors” (The Regents of the University of California, priority 2014, dated 2021).
Several values for one entry are separate records, joined by “and”; a condition that tells them apart may be missing. Equal entries are not always repeated.

Assays:
rat UT-A1 = molecular target: T1, rat UT-A1 (Rattus norvegicus, UniProt Q62668); assay: UT-A1 inhibition, fluorescence plate reader assay in MDCK cells expressing UT-A1, AQP1 and YFP-H148Q/V163S; format: cell-based
T1 construct: expressed in transfected cells; host or cells: MDCK cells stably co-expressing rat UT-A1, human AQP1 and YFP-H148Q/V163S
T1 sequence (Q62668 1-929): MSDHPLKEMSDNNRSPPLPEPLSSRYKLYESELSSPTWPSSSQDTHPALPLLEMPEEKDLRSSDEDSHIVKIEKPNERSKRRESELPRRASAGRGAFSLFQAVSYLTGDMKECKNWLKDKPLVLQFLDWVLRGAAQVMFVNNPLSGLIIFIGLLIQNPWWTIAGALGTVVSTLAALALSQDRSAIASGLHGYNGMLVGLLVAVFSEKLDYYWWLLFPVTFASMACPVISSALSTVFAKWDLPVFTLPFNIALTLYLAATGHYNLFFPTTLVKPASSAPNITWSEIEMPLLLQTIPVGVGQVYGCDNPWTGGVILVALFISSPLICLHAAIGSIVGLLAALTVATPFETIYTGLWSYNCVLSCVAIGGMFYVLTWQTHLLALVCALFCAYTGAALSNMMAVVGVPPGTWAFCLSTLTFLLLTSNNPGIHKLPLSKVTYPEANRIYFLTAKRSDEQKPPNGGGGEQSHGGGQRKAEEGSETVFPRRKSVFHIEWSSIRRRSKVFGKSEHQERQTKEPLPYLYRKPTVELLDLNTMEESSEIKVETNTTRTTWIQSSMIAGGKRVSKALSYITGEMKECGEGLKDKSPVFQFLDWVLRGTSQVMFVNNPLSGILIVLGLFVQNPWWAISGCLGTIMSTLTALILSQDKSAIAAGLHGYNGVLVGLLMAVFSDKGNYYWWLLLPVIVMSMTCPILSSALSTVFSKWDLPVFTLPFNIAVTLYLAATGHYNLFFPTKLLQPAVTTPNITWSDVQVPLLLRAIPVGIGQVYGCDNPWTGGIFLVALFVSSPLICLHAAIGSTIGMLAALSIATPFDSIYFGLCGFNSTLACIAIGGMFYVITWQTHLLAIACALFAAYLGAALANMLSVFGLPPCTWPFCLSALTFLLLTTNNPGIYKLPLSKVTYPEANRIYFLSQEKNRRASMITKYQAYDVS
Description: Primary screening was done using a collection of 50,000 chemically diverse, drug-like compounds from ChemDiv (San Diego, Calif.). For analysis of structure-activity relationships, >300 commercially available analogs (ChemDiv and Asinex, Winston-Salem, N.C.) were tested. Cells were plated on black 96-well Costar microplates with clear plastic bottoms (Corning, Corning, N.Y.) at 15,000 cells/well and cultured for 24 h at 37° C. before assay. Microplates containing cultured cells were washed twice with PBS and 150 μL of test compound (25 μM final) in PBS was added. Eighty wells contained test compounds, and the first and last columns of each plate contained negative (dimethyl sulfoxide, DMSO) and positive (0.35 mM phloretin) controls. The assays were done on a plate reader (Tecan Trading AG, Switzerland) equipped with a custom YFP filter set. Each assay consisted of a continuous 15-s read (5 Hz) in which 50 μL of 3.2 M urea in PBS was injected at 1 s (at 130 μL/s) to give a 800 mM final urea gradient.
MDCK cells stably expressing rat UT-A1 (see, e.g., Frohlich et al. (2006) Am J Physiol Cell Physiol. 291, C600-D606), YFP-H148Q/V163 S (see, e.g., Galietta, et al. (2001) FEBS Lett. 499, 220-224) and human AQP1, as described previously (see, e.g., Esteva-Font et al. (2013) Chem Biol. 20, 1235-1244), were grown in Dulbecco's modified Eagle medium (DMEM) containing 10% fetal bovine serum (FBS), penicillin G (100 U/mL), streptomycin (100 μg/mL), zeocin (500 μg/mL), geneticin (600 μg/mL) and Hygromycin (500 μg/mL) at 37° C., 5% CO2. A Cell Clone with bright YFP fluorescence and relatively low AQP1 expression was used for the screen to maximize dynamic range.
In order to identify UT-A inhibitors suitable for testing in rats, a collection of 50,000 synthetic small molecules was screened. As diagrammed in FIG. 1A (top), the fluorescence cell-based screen utilized MDCK cells stably rat expressing UT-A1, water channel AQP1 and the cytoplasmic chloride-sensing fluorescent protein YFP-H148Q/V163S. As described and validated previously (see, e.g., Esteva-Font et al. (2013) Chem Biol. 20, 1235-1244), extracellular addition of urea results in osmotic water efflux and cell shrinking, which increases intracellular chloride concentration and reduces YFP fluorescence. Urea entry results in increasing YFP fluorescence as cells re-swell. Inhibitors of UT-A1 urea transport produce a lesser reduction in fluorescence and slowed recovery.

rat UT-B = molecular target: T2, rat UT-B (Rattus norvegicus, UniProt P97689); assay: UT-B inhibition, erythrocyte lysis assay; format: cell-based
T2 construct: endogenous in cells; host or cells: rat erythrocytes (whole rat blood)
T2 sequence (P97689 1-384): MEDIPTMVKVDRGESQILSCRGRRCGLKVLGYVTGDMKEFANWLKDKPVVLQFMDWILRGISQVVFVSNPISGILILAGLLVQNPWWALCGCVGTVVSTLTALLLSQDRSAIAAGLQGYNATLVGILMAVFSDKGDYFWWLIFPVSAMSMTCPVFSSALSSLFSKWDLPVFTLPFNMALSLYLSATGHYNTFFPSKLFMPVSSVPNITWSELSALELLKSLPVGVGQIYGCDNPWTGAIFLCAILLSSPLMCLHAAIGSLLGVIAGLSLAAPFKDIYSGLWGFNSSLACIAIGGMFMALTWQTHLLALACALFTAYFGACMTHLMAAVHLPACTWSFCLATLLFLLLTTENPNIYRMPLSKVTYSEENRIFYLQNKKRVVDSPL
Description: As described (see, e.g., Levin et al. (2007) FASEB J. 21, 551-563), whole rat blood was diluted to a hematocrit of ˜1.5% in PBS containing 1.25 M acetamide and 5 mM glucose. Erythrocyte suspensions (100 μL) were added to 96-well round-bottom microplates and test compounds (1 μL) were added. After 15 min incubation, 20 μL of the erythrocyte suspension was added rapidly to each well containing 180 μL of PBS. Following vigorous mixing, erythrocyte lysis was quantified by absorbance at 710 nm. Non-lysed controls (isosmolar buffer) and lysed controls (0.7 mM phloretin) were added in each plate as negative and positive controls, respectively. Percentage erythrocyte lysis was computed as: % lysis=100% (Aneg−Atest)/(Aneg−Apos), where A is absorbance at 710 nm.
Inhibitor selectivity for rat UT-A1 versus UT-B was investigated using an erythrocyte lysis assay of rat UT-B urea transport, which involved measurement of hypotonic lysis (by near-infrared absorbance) of acetamide-loaded erythrocytes following rapid dilution into acetamide-free buffer.

IC50 (rat UT-A1)	IC50 (rat UT-B; rat erythrocytes) [µM]	selectivity for UT-A1 versus UT-B (rat UT-B; rat UT-A1 versus rat UT-B)	Structure (SMILES)
1 µM	10	–	COc1ccc(C)cc1S(=O)(=O)Nc1ccc(Cl)c(N2CCCS2(=O)=O)c1 [UTA1inh-F11, N-[4-Chloro-3-(1,1-dioxido-1,2-thiazolidin-2-yl)phenyl]-2-methoxy-5-methylbenzene-sulfonamide]
~1 µM and 1 µM	–	high selectivity	CC(=O)Nc1ccc(-c2csc(-c3c[nH]c4ccccc34)n2)cc1 [UTA1inh-E02, N-(4-(2-(1H-indol-3-yl)thiazol-4-yl)phenyl)acetamide]
